Assay results published in ChEMBL document CHEMBL1201862, “PubChem BioAssay data set” (2004).
The source made the active and inactive calls.

Columns and labels:
[1] = Vero 76 cell cytotoxicity, dose response, cytotoxicity control, set 3 (AID 602439); assay type: functional; conditions: Venezuelan equine encephalitis virus
[2] = biological target: T1, Microphthalmia-associated transcription factor (Homo sapiens, UniProt O75030); assay: TRPM1 promoter luciferase signal decrease, dose response, MITF inhibitor project, cell-based, SK-MEL-5, cherry-picked, set 3 (AID 493073); assay type: functional
T1 sequence (O75030 whole entry): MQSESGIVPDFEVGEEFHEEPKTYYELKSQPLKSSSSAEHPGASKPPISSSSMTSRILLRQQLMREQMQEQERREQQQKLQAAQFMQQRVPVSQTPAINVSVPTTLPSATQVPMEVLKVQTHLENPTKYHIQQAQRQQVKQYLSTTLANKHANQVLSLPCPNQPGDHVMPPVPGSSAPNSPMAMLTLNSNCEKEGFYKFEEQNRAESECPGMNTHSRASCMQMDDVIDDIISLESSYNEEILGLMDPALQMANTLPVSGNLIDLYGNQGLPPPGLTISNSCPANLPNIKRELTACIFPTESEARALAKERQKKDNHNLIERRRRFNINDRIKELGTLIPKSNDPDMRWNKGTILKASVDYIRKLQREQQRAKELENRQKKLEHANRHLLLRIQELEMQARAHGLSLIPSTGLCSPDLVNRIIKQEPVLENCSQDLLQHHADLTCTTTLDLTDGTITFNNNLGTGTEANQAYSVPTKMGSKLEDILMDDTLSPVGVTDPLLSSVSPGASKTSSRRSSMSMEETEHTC

[3] = Shn3 3'UTR reporter inhibitors, dose response, cell-based, Clone20 osteoblasts, firefly luciferase, cherry-picked (AID 624132); assay type: functional;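 note: firefly luciferase luminescence from reporter carrying the Shn3 3'UTR in osteoblasts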
[4] = HepG2 cell cytotoxicity, dose response, cytotoxicity control for Shn3 inhibitor project, CellTiter-Glo, cherry-picked (AID 624134); assay type: functional, cell-based
[5] = control 3'UTR Renilla luciferase suppression, dose response, counter-screen for Shn3 inhibitor project, cell-based, Clone20-Shn3RL, cherry-picked (AID 624133); assay type: functional
[6] = reduction of Shn3 3'UTR firefly luciferase signal, dose response, Schnurri-3 inhibitor project, cell-based, Clone20 osteoblasts, cherry-pick, set 2 (AID 720490); assay type: functional;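 note: actives lower the luminescence signal as inhibitors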
[7] = tested on: Streptococcus sp. 'group A'; assay: growth inhibition of control SK(-) GAS strain, dose response, counter-screen for streptokinase expression inhibitor project, luminescence, kanamycin, BacTiterGlo, confirmation (AID 1900); assay type: functional, organism-based
Streptokinase A = biological target: T2, Streptokinase A (Streptococcus pyogenes serotype M1, UniProt P10520); assay: S. pyogenes streptokinase expression inhibitors, potency, dose response, plasminogen activation absorbance, OD405 (AID 1914); assay type: functional, Streptococcus pyogenes M1 GAS;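 note: secreted streptokinase activity via plasminogen activation per viability signal from cell pellet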
T2 sequence (P10520 whole entry): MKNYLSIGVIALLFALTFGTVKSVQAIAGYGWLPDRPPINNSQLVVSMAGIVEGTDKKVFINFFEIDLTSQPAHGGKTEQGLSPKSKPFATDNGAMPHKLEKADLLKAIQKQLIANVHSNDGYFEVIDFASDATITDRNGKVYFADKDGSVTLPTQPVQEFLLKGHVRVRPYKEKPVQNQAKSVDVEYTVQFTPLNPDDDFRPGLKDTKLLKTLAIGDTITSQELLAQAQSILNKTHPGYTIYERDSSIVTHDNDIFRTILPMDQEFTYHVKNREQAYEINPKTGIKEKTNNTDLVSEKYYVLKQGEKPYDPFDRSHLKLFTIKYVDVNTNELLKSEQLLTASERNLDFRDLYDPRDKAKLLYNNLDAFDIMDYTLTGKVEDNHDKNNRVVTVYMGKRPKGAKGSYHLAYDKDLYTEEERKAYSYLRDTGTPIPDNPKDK

Streptococcus = assay: Group A Streptococcus viability loss, dose response, counter-screen for streptokinase expression inhibitor project, luminescence, BacTiterGlo (AID 1915); assay type: functional, organism-based;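 note: potency for reduction of bacterial viability or growth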
INS1 = assay: beta cell apoptosis inhibitors, cytokine rescue, dose response, luminescence, retest (AID 449756); assay type: functional, cell-based; conditions: Rattus norvegicus;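 note: cell death triggered by IL-1 beta plus TNF-alpha plus IFN-gamma mixture; protective hits raise ATP signal compared with cytokine alone wells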
[8] = HepG2 cell cytotoxicity, dose response, cytotoxicity control, ATP luminescence, cherry-pick, activator set 2 (AID 1053143); assay type: functional, cell-based
Caspase-3 = biological target: T3, Caspase-3 (Homo sapiens, UniProt P42574); assay type: functional;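 note: Dose-response selectivity test against caspase-3 for candidate inhibitors of sentrin-specific proteases (SENPs)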
T3 sequence (P42574 whole entry): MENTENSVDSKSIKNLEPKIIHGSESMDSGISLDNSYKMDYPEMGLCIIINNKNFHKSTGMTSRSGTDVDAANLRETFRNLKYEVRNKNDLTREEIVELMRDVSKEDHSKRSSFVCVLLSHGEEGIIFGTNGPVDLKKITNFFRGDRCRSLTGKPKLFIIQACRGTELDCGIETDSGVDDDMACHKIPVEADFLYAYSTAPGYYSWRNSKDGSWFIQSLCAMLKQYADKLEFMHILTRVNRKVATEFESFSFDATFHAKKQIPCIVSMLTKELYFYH

[9] = biological target: T4, Sentrin-specific protease 7 (Homo sapiens, UniProt Q9BQF6); assay type: functional;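 note: Luminescence-based dose-response confirmation of ultra-high-throughput screening hits, measuring inhibition of SENP7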
T4 sequence (Q9BQF6 whole entry): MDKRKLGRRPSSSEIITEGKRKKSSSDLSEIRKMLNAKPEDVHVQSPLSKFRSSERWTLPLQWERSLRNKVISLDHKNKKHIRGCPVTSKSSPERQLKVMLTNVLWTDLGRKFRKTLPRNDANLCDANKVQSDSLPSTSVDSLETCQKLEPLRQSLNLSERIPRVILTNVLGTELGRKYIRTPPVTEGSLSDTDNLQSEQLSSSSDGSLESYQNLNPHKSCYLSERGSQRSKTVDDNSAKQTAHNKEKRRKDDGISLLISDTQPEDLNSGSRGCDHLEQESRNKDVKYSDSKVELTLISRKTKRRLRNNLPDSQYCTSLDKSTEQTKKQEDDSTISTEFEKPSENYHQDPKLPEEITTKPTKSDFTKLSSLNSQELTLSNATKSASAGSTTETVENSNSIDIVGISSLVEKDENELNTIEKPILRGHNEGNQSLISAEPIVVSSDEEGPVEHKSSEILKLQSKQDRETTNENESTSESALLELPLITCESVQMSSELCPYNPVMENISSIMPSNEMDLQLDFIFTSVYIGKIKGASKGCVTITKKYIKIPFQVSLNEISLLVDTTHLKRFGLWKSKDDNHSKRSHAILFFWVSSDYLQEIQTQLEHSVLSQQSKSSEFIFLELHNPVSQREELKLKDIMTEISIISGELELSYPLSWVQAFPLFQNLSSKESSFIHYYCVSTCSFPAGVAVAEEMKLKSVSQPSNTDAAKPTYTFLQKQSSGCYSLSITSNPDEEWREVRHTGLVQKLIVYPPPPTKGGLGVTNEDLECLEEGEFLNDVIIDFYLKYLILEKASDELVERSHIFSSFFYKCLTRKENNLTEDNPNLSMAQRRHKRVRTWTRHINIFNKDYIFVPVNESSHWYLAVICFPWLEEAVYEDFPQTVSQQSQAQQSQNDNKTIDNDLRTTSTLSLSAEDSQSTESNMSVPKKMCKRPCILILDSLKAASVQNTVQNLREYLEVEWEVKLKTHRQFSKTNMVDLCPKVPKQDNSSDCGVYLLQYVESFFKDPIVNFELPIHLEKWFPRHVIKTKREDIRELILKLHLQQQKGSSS

[10] = biological target: T5, Sentrin-specific protease 6 (Homo sapiens, UniProt Q9GZR1); assay type: functional;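 note: Luminescence-based dose-response confirmatory assay of SENP6 inhibition, following up an ultra-high-throughput screen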
T5 sequence (Q9GZR1 whole entry): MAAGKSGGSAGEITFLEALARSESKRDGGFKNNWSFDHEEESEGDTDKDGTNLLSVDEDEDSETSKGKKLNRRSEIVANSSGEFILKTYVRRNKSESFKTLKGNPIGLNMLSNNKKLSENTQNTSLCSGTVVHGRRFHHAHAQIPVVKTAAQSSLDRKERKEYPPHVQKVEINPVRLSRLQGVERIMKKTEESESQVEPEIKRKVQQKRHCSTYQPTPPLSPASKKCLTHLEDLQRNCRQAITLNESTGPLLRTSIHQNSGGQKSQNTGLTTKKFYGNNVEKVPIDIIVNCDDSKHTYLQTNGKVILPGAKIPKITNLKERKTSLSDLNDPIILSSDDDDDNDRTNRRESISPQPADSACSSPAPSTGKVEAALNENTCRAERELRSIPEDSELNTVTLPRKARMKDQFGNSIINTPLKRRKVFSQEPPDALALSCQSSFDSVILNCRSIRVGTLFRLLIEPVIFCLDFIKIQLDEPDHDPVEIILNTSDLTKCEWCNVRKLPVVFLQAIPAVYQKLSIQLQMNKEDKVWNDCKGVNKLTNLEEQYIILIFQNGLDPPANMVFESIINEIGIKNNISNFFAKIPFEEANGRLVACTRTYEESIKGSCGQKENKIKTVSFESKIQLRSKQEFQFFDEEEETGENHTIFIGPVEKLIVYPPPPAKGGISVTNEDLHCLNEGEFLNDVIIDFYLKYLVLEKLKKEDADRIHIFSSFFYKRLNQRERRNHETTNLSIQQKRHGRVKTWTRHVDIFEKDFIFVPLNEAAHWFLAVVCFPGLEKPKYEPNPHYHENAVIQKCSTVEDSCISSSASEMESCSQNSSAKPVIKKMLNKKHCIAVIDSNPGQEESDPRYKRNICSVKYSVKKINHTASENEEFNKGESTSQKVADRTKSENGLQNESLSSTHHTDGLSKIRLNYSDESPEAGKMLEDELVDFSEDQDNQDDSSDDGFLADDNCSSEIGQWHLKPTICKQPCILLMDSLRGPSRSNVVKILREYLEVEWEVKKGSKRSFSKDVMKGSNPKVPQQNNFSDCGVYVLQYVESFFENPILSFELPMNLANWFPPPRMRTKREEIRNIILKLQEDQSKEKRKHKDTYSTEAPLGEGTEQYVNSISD

[11] = biological target: T6, Sentrin-specific protease 8 (Homo sapiens, UniProt Q96LD8); assay type: functional;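 note: luminescence read-out of SENP8 inhibition, dose-response confirmation following an ultra-high-throughput screen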
T6 sequence (Q96LD8 whole entry): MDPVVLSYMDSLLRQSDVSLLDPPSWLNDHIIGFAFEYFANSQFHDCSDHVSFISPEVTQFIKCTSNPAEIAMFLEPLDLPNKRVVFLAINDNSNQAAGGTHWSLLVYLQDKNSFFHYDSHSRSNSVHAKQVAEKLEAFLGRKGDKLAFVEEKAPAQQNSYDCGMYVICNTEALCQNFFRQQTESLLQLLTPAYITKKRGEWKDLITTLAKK

[12] = biological target: Dual specificity tyrosine-phosphorylation-regulated kinase 1A (Rattus norvegicus, UniProt Q63470); assay type: biochemical, Homo sapiens
Caspase-6 = Caspase-6 (Homo sapiens, UniProt P55212); assay: human caspase-6 inhibitors, dose response, biochemical, VEID-R110 fluorescence, cherry-pick (AID 720632)
Kallikrein-7 = Kallikrein-7 (Homo sapiens, UniProt P49862); assay: Fluorescence Intensity-based biochemical primary high throughput dose response assay to identify activators of kallikrein-7 (K7) zymogen.
[13] = biological target: Disintegrin and metalloproteinase domain-containing protein 17 (Homo sapiens, UniProt P78536); assay: exosite inhibitors of ADAM17, dose response, biochemical (AID 743260)
[14] = ADAM10 protease inhibitors, dose response, selectivity assay for ADAM17 exosite inhibitor project, biochemical, FRET peptide substrate, recombinant human ADAM10 (AID 743259);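 note: ADAM10 enzyme cleaving a FRET peptide substrate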
HeLa = assay: HeLa cell cytotoxicity, dose response, cytotoxicity control, ATP luminescence, cherry-pick samples (AID 687004); assay type: functional, cell-based; conditions: Homo sapiens
HEK293 = assay: HEK293T cell cytotoxicity, dose response, cytotoxicity control, ATP luminescence, cherry-pick samples (AID 687005); assay type: functional, cell-based; conditions: Homo sapiens;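 note: cells exposed to compound for 48 hours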
[15] = HEK293 Cytotoxicity Assay Measured in Cell-Based System Using Plate Reader - 7071-01_Inhibitor_Dose_CherryPick_Activity_Set2.; assay type: functional
[16] = Late stage assay provider results from the probe development effort to identify selective inhibitors of heat shock protein 90 (HSP90): Absorbance-based cell proliferation assay in SKBR3 cells.; assay type: functional; conditions: SK-BR-3
[17] = Late stage assay provider results from the probe development effort to identify selective inhibitors of heat shock protein 90 (HSP90): Absorbance-based cell proliferation assay in MCF7 cells.; assay type: functional
[18] = biological target: Protein disulfide-isomerase (Homo sapiens, UniProt P07237); assay: PDI inhibitors, insulin turbidity readout, confirmation, biochemical, dry powder samples, set 2 (AID 652146)
[19] = A375 melanoma cell cytotoxicity, dose response, counter-screen for MITF inhibitor project, CellTiter-Glo luminescence, dry powder, set 2 (AID 624489); assay type: functional, cell-based; conditions: A-375;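 note: actives are compounds lowering A375 viability meaning general cytotoxicity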
[20] = cytotoxicity in primary human melanocytes, dose response, cytotoxicity control, cell-based, plate reader, dry powder (AID 651920); assay type: functional

Chain of Disintegrin and metalloproteinase domain-containing protein 17 (P78536 whole entry, the tested form may be a part): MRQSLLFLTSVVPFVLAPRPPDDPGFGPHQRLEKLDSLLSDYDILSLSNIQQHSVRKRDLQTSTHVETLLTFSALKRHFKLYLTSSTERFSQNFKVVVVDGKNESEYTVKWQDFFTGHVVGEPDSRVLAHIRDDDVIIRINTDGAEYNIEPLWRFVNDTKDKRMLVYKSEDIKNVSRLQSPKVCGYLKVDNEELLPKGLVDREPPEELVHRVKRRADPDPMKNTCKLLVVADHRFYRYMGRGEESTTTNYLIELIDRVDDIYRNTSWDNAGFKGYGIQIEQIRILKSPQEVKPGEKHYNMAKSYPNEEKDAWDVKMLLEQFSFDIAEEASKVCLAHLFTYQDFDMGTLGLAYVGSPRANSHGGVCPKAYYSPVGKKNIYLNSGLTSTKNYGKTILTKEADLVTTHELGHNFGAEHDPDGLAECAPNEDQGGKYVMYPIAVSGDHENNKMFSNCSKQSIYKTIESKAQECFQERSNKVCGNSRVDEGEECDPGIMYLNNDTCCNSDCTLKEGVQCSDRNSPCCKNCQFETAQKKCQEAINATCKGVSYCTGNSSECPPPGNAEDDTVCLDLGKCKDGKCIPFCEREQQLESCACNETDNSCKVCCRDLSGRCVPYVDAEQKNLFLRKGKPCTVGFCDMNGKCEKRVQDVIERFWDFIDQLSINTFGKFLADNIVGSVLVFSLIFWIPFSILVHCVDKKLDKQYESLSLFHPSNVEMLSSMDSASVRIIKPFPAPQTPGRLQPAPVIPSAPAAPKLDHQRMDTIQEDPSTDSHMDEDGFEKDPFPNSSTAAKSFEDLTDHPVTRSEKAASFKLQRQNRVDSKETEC
Chain of Caspase-6 (P55212 24-179 limits assumed): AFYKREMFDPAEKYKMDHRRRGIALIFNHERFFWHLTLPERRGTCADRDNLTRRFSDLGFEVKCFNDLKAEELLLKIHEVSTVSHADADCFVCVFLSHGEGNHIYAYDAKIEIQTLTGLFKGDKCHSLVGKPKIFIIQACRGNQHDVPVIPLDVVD
Chain of Caspase-6 (P55212 194-293 limits assumed): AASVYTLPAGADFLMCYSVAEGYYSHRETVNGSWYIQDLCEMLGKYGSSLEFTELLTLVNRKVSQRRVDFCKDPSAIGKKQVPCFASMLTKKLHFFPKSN
Chain of Protein disulfide-isomerase (P07237 whole entry): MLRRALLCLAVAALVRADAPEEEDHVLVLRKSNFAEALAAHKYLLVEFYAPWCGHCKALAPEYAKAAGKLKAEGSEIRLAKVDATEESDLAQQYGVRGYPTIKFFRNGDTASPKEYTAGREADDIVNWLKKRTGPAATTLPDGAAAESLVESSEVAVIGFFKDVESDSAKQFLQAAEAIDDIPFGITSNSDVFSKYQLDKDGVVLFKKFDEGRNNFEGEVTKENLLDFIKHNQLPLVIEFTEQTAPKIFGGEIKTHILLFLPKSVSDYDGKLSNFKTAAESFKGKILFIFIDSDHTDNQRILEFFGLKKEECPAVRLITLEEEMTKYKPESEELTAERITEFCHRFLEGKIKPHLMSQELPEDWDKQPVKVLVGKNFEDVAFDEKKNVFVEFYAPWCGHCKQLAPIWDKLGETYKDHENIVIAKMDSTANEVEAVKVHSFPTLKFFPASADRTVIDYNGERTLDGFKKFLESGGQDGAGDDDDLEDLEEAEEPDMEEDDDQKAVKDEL
Chain of Kallikrein-7 (P49862 whole entry, the tested form may be a part): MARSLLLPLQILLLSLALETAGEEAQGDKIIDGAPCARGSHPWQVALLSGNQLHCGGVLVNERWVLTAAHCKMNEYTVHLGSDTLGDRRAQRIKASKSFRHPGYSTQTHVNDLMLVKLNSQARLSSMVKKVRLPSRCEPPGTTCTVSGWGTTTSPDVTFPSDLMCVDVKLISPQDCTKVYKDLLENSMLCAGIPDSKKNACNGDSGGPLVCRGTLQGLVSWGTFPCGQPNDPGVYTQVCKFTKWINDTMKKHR

## O=C(Nc1nc2c(s1)CCCC2)c1cccs1
[1]
  CC50: > 50 µM (active)

## COc1ccccc1NS(=O)(=O)c1cc(NC(=O)c2ccc(Cl)nc2)ccc1Cl
[2]
  AC50: 11.3 µM (active)
[3]
  AC50: 3.12 µM (active)
[4]
  AC50: 56.2 µM (active)
[5]
  AC50: 21 µM (active)
[6]
  AC50: 3.71 µM (active)

## CCOC(=O)c1sc(NC(=O)Nc2cccc(Cl)c2)cc1C
[7]
  EC50: 4.86 µM (active)
Streptokinase A
  EC50: 11.2 µM (active)
Streptococcus
  EC50: 4.1 µM (active)
INS1
  AC50: 4.57 µM (active)
[8]
  AC50: 14.7 µM (active)

## COc1cc2c(C#N)c(N3CCCC3)nc(N)c2c(N)n1
Caspase-3
  IC50: 7.35 µM (active)
[9]
  IC50: 2.67 µM (active)
[10]
  IC50: 2.24 µM (active)
[11]
  IC50: 2.64 µM (active)
[12]
  AC50: 5.72 µM (active)
Caspase-6
  AC50: 12 µM (active)

## COc1cc2c(cc1OC)C1CCN3C(=O)CCC3N1CC2 (stereo not drawn)
Kallikrein-7
  EC50: 21.1 µM (inactive)

## Cc1ccc(CC2(c3ccccc3)NC(=O)NC2=O)cc1 (stereo not drawn)
[13]
  IC50: 18.6 µM (inactive)
[14]
  IC50: > 69.4 µM (inactive)

## CCCC#Cc1ccc2c(c1)O[C@H](CN(C)CCC)[C@H](C)CN([C@@H](C)CO)S2(=O)=O
HeLa
  AC50: 42.6 µM (active)
HEK293
  AC50: 14.6 µM (active)
[15]
  AC50: 14.6 µM (active)

## COc1ccccc1/N=N/c1c(O)[nH]c(=O)c(C#N)c1C
[16]
  IC50: > 100 µM (inactive)
[17]
  IC50: > 100 µM (inactive)

## C=CCOc1ccc(CN2CCC(CCOc3ccccc3)(C(=O)N3CCCC3)CC2)cc1Cl
[18]
  AC50: > 30 µM (inactive)

## O=C(NC1=C(N2CCN(c3ccccc3)CC2)C(=O)c2ccccc2C1=O)c1ccccc1
[19]
  AC50: > 70 µM (inactive)
[20]
  AC50: > 70 µM (inactive)
